Measured values from patent US9371336B2, “Compounds for treating spinal muscular atrophy” (PTC Therapeutics Inc., priority 2012, dated 2016).

Tests used:
Smn protein = Smn protein assay (HTRF) in cultured cells (SMA patient fibroblasts GM03813); assay type: cell-based, human; settings: for Smn protein expression: SMA Type 1 patient fibroblast cells, 48 hour, SMN HTRF assay (FIG. 6); for EC1.5x for Smn protein expression: SMA patient fibroblast cells (GM03813), HTRF, 7-point concentration data, concentration producing 1.5 times Smn protein vs DMSO vehicle control; for EC1.5x for Smn protein expression / maximum fold (Fold) increase of Smn protein: 48 hours; for maximum fold (Fold) increase of Smn protein: SMA patient fibroblast cells, 7-point concentration curve, relative to vehicle control
In short: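 SMA patient fibroblasts (GM03813) were treated 48 h at 37° C with a 7-point, 3.16-fold compound series in triplicate, then lysed in RIPA. Smn was read by HTRF (anti-SMN d2/kryptate, 665/620 nm ratio). ΔF versus blank was divided by vehicle ΔF to give fold Smn increase.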

[1] = tested on: SMN2 minigene mRNA (SMN2-A minigene construct); assay: SMN2 minigene mRNA splicing RT-qPCR assay in cultured cells; assay type: cell-based, human; settings: for inclusion of exon 7 of SMN2 into mRNA / SMN2 minigene FL mRNA relative to vehicle control: HEK293H cells with SMN2-A minigene, 24 hr; for inclusion of exon 7 of SMN2 into mRNA: relative to untreated cells (FIG. 3); for SMN2 minigene FL mRNA relative to vehicle control: rising concentrations, RT-qPCR (FIG. 3); for EC (1.5-fold): Homo sapiens, HEK293-H, HEK293H cells stably transfected with SMN2-A minigene, 24 hours, 7-point concentration data, concentration giving 1.5-fold SMN2 full length mRNA relative to vehicle-treated cells, read-out: EC1.5x for production of full length SMN2 mRNA
In short: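 Full-length SMN2 minigene mRNA, measured by exon 7/luciferase-specific RT-qPCR that excludes endogenous SMN1/SMN2, was normalized to GAPDH and expressed relative to vehicle-treated cells via modified ΔΔCt. Stably transfected HEK293H cells received compound (7-point, 3.16-fold series, duplicates) for 24 h at 37 °C.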

Q: Which Smn protein expression (Smn protein) does the source give for `Cc1ccc2nc(-c3cc4ccc(N5CCN(C)CC5)nc4oc3=O)cn2c1` [Cpd 27, 3-(6-methylimidazo[1,2-a]pyridin-2-yl)-7-(4-methylpiperazin-1-yl)-2H-pyrano[2,3-b]pyridin-2-one] here?
A: Its Smn protein expression is “dose dependent increase in Smn protein expression”.

Q: And the “EC1.5x for Smn protein expression” value (Smn protein)?
A: Its value is “** (an EC1.5× between >1 and ≦3 μM is indicated by two stars (**))”.

Q: What about the “maximum fold (Fold) increase of Smn protein” value (Smn protein) of the same molecule?
A: The value was “**** (a fold increase between >1.5 and ≦1.65 is indicated by four stars (****))”.

Q: And the “inclusion of exon 7 of SMN2 into mRNA” value [1]?
A: Its value is “fully restored exon 7 inclusion”.

Q: And the “SMN2 minigene FL mRNA relative to vehicle control” value [1]?
A: Its value is “increased SMN2 minigene FL mRNA at low concentrations”.

Q: And the EC (1.5-fold) [1]?
A: The EC (1.5-fold) was 0.1 to 0.3 µM.

Q: Which Smn protein expression (Smn protein) does the source give for `CN1CCN(c2ccc3cc(-c4nc5c(Cl)cccc5s4)c(=O)oc3n2)CC1` [Cpd 5, 3-(4-chloro-1,3-benzothiazol-2-yl)-7-(4-methylpiperazin-1-yl)-2H-pyrano[2,3-b]pyridin-2-one] here?
A: The Smn protein expression was “dose dependent increase in Smn protein expression”.

Q: What about the “EC1.5x for Smn protein expression” value (Smn protein) of the same molecule?
A: The value was “*** (an EC1.5× between >0.3 μM and ≦1 μM is indicated by three stars (***))”.

Q: What about the “maximum fold (Fold) increase of Smn protein” value (Smn protein) of the same molecule?
A: The value was “**** (a fold increase between >1.5 and ≦1.65 is indicated by four stars (****))”.

Q: And the “inclusion of exon 7 of SMN2 into mRNA” value [1]?
A: The value was “fully restored exon 7 inclusion”.

Q: And the “SMN2 minigene FL mRNA relative to vehicle control” value [1]?
A: Its value is “increased SMN2 minigene FL mRNA at low concentrations”.

Q: And the EC (1.5-fold) [1]?
A: Its EC (1.5-fold) is 0.1 to 0.3 µM.
